The molecules below were run against T1, AhR (Homo sapiens, UniProt P35869) (assay: In Vitro Assay 1: XRE-luciferase reporter assay, antagonism in human cell line (HepG2)). Details: Assay 1: AhR-Luc Human Antagonism (IC50, nM), unmarked values: kynurenine 200 μM, 6 hours.
T1 sequence (P35869 11-848): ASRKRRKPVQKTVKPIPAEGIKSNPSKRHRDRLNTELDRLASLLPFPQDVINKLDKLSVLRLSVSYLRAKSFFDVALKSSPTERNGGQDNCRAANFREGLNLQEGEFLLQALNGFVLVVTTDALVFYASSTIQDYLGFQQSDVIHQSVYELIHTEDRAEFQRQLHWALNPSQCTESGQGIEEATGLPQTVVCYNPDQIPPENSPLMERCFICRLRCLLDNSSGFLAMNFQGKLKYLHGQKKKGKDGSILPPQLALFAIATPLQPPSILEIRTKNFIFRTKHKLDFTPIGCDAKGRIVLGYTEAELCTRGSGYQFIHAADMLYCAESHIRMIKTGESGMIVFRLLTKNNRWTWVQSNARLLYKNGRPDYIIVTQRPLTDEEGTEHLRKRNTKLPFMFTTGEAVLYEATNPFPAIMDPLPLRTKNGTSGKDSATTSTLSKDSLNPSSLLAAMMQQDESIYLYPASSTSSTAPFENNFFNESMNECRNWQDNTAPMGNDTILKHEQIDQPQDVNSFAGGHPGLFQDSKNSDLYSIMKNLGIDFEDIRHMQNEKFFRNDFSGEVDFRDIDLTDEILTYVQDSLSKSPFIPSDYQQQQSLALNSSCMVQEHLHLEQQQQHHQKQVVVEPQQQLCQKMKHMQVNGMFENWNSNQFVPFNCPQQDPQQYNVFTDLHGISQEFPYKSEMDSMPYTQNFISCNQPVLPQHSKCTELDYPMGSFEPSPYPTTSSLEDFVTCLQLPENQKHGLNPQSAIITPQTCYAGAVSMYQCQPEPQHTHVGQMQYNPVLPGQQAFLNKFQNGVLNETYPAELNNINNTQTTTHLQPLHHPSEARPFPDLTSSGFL

SMILES	IC50 [nM]
OC[C@@H]1CCN(c2cc(-c3ccc(C(F)(F)F)cc3)nc(-c3cccnc3)n2)C[C@@H]1F [Example 252, ((3R,4S)-3-fluoro-1-(2-(pyridin-3-yl)-6-(4-(trifluoromethyl)phenyl)pyrimidin-4-yl)piperidin-4-yl)methanol]	< 10
CC(=O)N[C@H]1CN(c2cc(-c3ccc(Cl)cc3)nc(-c3cccnc3)n2)C[C@H]1O [Example 244, N-((3S,4R)-1-(6-(4-chlorophenyl)-2-(pyridin-3-yl)pyrimidin-4-yl)-4-hydroxypyrrolidin-3-yl)acetamide]	> 1000
CS(=O)(=O)N1CCN(c2cc(-c3ccc(Cl)cc3)nc(-c3cncc(F)c3)n2)CC1 [Example 325, 4-(4-chlorophenyl)-2-(5-fluoropyridin-3-yl)-6-(4-(methylsulfonyl)piperazin-1-yl)pyrimidine]	10 to 100
Cc1ccncc1-c1nc(-c2ccc(C(F)(F)F)cc2)cc(N2CC[C@H](O)C2)n1 [Example 263, (S)-1-(2-(4-methylpyridin-3-yl)-6-(4-(trifluoromethyl)phenyl)pyrimidin-4-yl)pyrrolidin-3-ol]	< 10
O[C@H]1CCN(c2cc(-c3ccc(Cl)cc3)nc(-c3ccc(F)nc3)n2)C1 [Example 345, (S)-1-(6-(4-chlorophenyl)-2-(6-fluoropyridin-3-yl)pyrimidin-4-yl)pyrrolidin-3-ol]	100 to 1000
O[C@H]1CCN(c2cc(-c3ccc(Cl)cc3)nc(-c3ccccn3)n2)C1 [Example 347, (S)-1-(6-(4-chlorophenyl)-2-(pyridin-2-yl)pyrimidin-4-yl)pyrrolidin-3-ol]	> 1000
OCC[C@H]1CN(c2cc(-c3ccc(Cl)cc3)nc(-c3cccnc3)n2)CCN1 [Example 371, (S)-2-(4-(6-(4-chlorophenyl)-2-(pyridin-3-yl)pyrimidin-4-yl)piperazin-2-yl)ethanol]	100 to 1000
CC(O)C(O)C(=O)N1CCN(c2cc(-c3ccc(Cl)cc3)nc(-c3cccnc3)n2)CC1 (centres unmarked) [Example 364, 1-(4-(6-(4-chlorophenyl)-2-(pyridin-3-yl)pyrimidin-4-yl)piperazin-1-yl)-2,3-dihydroxybutan-1-one]	< 10

Further lines, results first:

IC50 [nM]	SMILES
10 to 100	OC1CN(c2cc(-c3ccc(Cl)cc3)nc(-c3cccnc3)n2)C1 [Example 319, 1-(6-(4-chlorophenyl)-2-(pyridin-3-yl)pyrimidin-4-yl)azetidin-3-ol]
10 to 100	OCC1CCN(c2cc(-c3ccc(Cl)cc3Cl)nc(-c3cccnc3)n2)CC1 [Example 307, (1-(6-(2,4-dichlorophenyl)-2-(pyridin-3-yl)pyrimidin-4-yl)piperidin-4-yl)methanol]
> 1000	O=C1COCCN1c1ccc(-c2cc(N3CCC(CO)CC3)nc(-c3cccnc3)n2)cc1 [Example 291, 4-(4-(6-(4-(hydroxymethyl)piperidin-1-yl)-2-(pyridin-3-yl)pyrimidin-4-yl)phenyl)morpholin-3-one]

Same assay, conditions: Assay 1: AhR-Luc Human Antagonism (IC50, nM), values marked *: kynurenine 50 μM, 6 hours

SMILES	IC50 [nM]
Clc1ccc(-c2cc(N3CCC(c4cc(Cl)cc(Cl)c4)CC3)nc(-c3cccnc3)n2)cc1 [Example 157, 4-(4-chlorophenyl)-6-(4-(3,5-dichlorophenyl)piperidin-1-yl)-2-(pyridin-3-yl)pyrimidine]	> 1000
CN1C(C)(C)CC(Nc2cc(-c3ccc(Cl)cc3)nc(-c3cccnc3)n2)CC1(C)C [Example 100, 6-(4-chlorophenyl)-N-(1,2,2,6,6-pentamethylpiperidin-4-yl)-2-(pyridin-3-yl)pyrimidin-4-amine]	> 1000
C[C@@H]1CN(C(=O)c2ccccc2)CCN1c1cc(-c2ccc(Cl)cc2)nc(-c2cccnc2)n1 [Example 77, (R)-(4-(6-(4-chlorophenyl)-2-(pyridin-3-yl)pyrimidin-4-yl)-3-methylpiperazin-1-yl)(phenyl)methanone]	> 1000
OCC(O)CNc1cc(-c2ccc(Cl)cc2)nc(-c2cccnc2)n1 (centres unmarked) [Example 10, 3-((6-(4-chlorophenyl)-2-(pyridin-3-yl)pyrimidin-4-yl)amino)propane-1,2-diol]	100 to 1000
CC1CC(C)CN(c2cc(-c3ccc(Cl)cc3)nc(-c3cccnc3)n2)C1 (centres unmarked) [Example 50, 4-(4-chlorophenyl)-6-(3,5-dimethylpiperidin-1-yl)-2-(pyridin-3-yl)pyrimidine]	> 1000
O[C@H]1CCC[C@@H]1Nc1cc(-c2ccc(Cl)cc2)nc(-c2cccnc2)n1 [Example 67, (1S,2S)-2-((6-(4-chlorophenyl)-2-(pyridin-3-yl)pyrimidin-4-yl)amino)cyclopentan-1-ol]	100 to 1000
Cn1cc(-c2nc(-c3ccc(Cl)cc3)cc(N3CCC(CCCO)CC3)n2)cn1 [Example 179, 3-(1-(6-(4-chlorophenyl)-2-(1-methyl-1H-pyrazol-4-yl)pyrimidin-4-yl)piperidin-4-yl)propan-1-ol]	100 to 1000
C[C@H](CO)Nc1cc(-c2ccc(Cl)cc2)nc(-c2cccnc2)n1 [Example 11, (R)-2-((6-(4-chlorophenyl)-2-(pyridin-3-yl)pyrimidin-4-yl)amino)propan-1-ol]	10 to 100
CCC(CO)Nc1cc(-c2ccc(Cl)cc2)nc(-c2cccnc2)n1 (centres unmarked) [Example 15, 2-((6-(4-chlorophenyl)-2-(pyridin-3-yl)pyrimidin-4-yl)amino)butan-1-ol]	> 1000
Cn1cc(-c2nc(-c3ccc(Cl)cc3)cc(N3CCC(CCO)CC3)n2)cn1 [Example 178, 2-(1-(6-(4-chlorophenyl)-2-(1-methyl-1H-pyrazol-4-yl)pyrimidin-4-yl)piperidin-4-yl)ethan-1-ol]	100 to 1000
CC1CCCCN1c1cc(-c2ccc(Cl)cc2)nc(-c2cccnc2)n1 (centres unmarked) [Example 47, 4-(4-chlorophenyl)-6-(2-methylpiperidin-1-yl)-2-(pyridin-3-yl)pyrimidine]	> 1000
O[C@@H]1CC[C@H](Nc2cc(-c3ccc(Cl)cc3)nc(-c3cccnc3)n2)C1 [Example 214, (1R,3S)-3-((6-(4-chlorophenyl)-2-(pyridin-3-yl)pyrimidin-4-yl)amino)cyclopentan-1-ol]	10 to 100
OCCNc1cc(-c2ccc(Cl)cc2)nc(-c2cccnc2)n1 [Example 6, 2-((6-(4-chlorophenyl)-2-(pyridin-3-yl)pyrimidin-4-yl)amino)ethan-1-ol]	100 to 1000
CN(C)C1CCN(c2cc(-c3ccc(Cl)cc3)nc(-c3cccnc3)n2)C1 (centres unmarked) [Example 164, 1-(6-(4-chlorophenyl)-2-(pyridin-3-yl)pyrimidin-4-yl)-N,N-dimethylpyrrolidin-3-amine]	100 to 1000
CN1CCCC(Nc2cc(-c3ccc(Cl)cc3)nc(-c3cccnc3)n2)C1 (centres unmarked) [Example 173, 6-(4-chlorophenyl)-N-(1-methylpiperidin-3-yl)-2-(pyridin-3-yl)pyrimidin-4-amine]	100 to 1000
CCCCNc1cc(-c2ccc(Cl)cc2)nc(-c2cccnc2)n1 [Example 23, N-butyl-6-(4-chlorophenyl)-2-(pyridin-3-yl)pyrimidin-4-amine]	> 1000

Second part, the molecule after the results:

IC50 [nM]	SMILES
10 to 100	Cn1cc(-c2nc(-c3ccc(Cl)cc3)cc(N3CCC(CO)CC3)n2)cn1 [Example 177, (1-(6-(4-chlorophenyl)-2-(1-methyl-1H-pyrazol-4-yl)pyrimidin-4-yl)piperidin-4-yl)methanol]
10 to 100	O[C@@H]1CCN(c2cc(-c3ccc(Cl)cc3)nc(-c3cccnc3)n2)C[C@H]1F [Example 221, (3R,4R)-1-(6-(4-chlorophenyl)-2-(pyridin-3-yl)pyrimidin-4-yl)-3-fluoropiperidin-4-ol]
100 to 1000	Clc1ccc(-c2cc(N3CCC(N4CCCC4)CC3)nc(-c3cccnc3)n2)cc1 [Example 152, 4-(4-chlorophenyl)-2-(pyridin-3-yl)-6-(4-(pyrrolidin-1-yl)piperidin-1-yl)pyrimidine]
10 to 100	OCC1CCCCN1c1cc(-c2ccc(Cl)cc2)nc(-c2cccnc2)n1 (centres unmarked) [Example 36, (1-(6-(4-chlorophenyl)-2-(pyridin-3-yl)pyrimidin-4-yl)piperidin-2-yl)methanol]
100 to 1000	CN1CCC(CNc2cc(-c3ccc(Cl)cc3)nc(-c3cccnc3)n2)CC1 [Example 193, 6-(4-chlorophenyl)-N-((1-methylpiperidin-4-yl)methyl)-2-(pyridin-3-yl)pyrimidin-4-amine]
> 1000	CNC1CCN(c2cc(-c3ccc(Cl)cc3)nc(-c3cccnc3)n2)C1 (centres unmarked) [Example 141, 1-(6-(4-chlorophenyl)-2-(pyridin-3-yl)pyrimidin-4-yl)-N-methylpyrrolidin-3-amine]
< 10	CCOC(=O)N1CCN(c2cc(-c3ccc(Cl)cc3)nc(-c3cccnc3)n2)CC1 [Example 110, ethyl 4-(6-(4-chlorophenyl)-2-(pyridin-3-yl)pyrimidin-4-yl)piperazine-1-carboxylate]
> 1000	OCCC1CCCCN1c1cc(-c2ccc(Cl)cc2)nc(-c2cccnc2)n1 (centres unmarked) [Example 37, 2-(1-(6-(4-chlorophenyl)-2-(pyridin-3-yl)pyrimidin-4-yl)piperidin-2-yl)ethan-1-ol]

— US20230150970A1, “AMINOPYRIMIDINE DERIVATIVES AND THEIR USE AS ARYL HYDROCARBON RECEPTOR MODULATORS” (DONG-A ST CO., LTD., priority 2020, published 2023)
